Data: US6121253A, “Prostaglandin conjugates for treating or preventing bone disease” (Merck Frosst Canada & Co., priority 1999, dated 2000)
Where two headings read alike, the source gives them in different places.

Legend:
[1] = Uptake/binding of dual-labelled conjugate to human bone powder in fetal bovine serum
Description: Dual-labelled conjugate 14 ([^3 H]-PGE2 /[^14 C]-alendronate) (21.64 μCi of ^14 C and 19.05 μCi of ^3 H) is placed in 1 ml 100% fetal bovine serum to yield a final concentration of 3.5 μM. […] of this solution is incubated with 10 mg bone powder for 1, 2, 3 and 5 mins with vigorous shaking. The mixture is centrifuged (20 sec), 125 μl aliquot is taken from each sample and counted in 10 ml Atomlight in an LKB liquid scintillation counter, 125 μl of the radioactive sample is also counted at 0 time. The uptake of radioactivity into the bone powder is calculated by subtracting the dpms in the medium counted at the times indicated above from dpms at 0 time and this number is divided by the dpms at 0 time.

[2] = Dissociation/release of label from human bone powder in fetal bovine serum at 37 C; format: in vitro ADME
Description: Dissociation of [^3 H]-PGE2 /[^14 C]-alendronate from human bone powder in fetal bovine serum at 37 C is measured by incubating 10 mg of human one powder with 1 μl [^3 H]-PGE2 /[^14 C]-ABP in 1 ml FBS for 5 mins. The mixture is centrifuged (20 sec), 100 μl aliquot is taken and counted in Atomlight in an LKB liquid scintillation counter. The rest of the 900 μl solution is withdrawn, the bone powder is washed once with 1 ml phosphate buffered saline, 1 ml fresh fetal bovine serum is added and incubated with the bone powder for 15, 24, 39, 48, 59, 79 and 103 hours in a shaking bath at 37° C. 100 μl aliquots are withdrawn at these times and counted in 10 ml Atomlight in an LKB liquid scintillation counter. The release of radioactivity from the human bone powder into the medium is calculated as follows: dpms from 100 μl of the [^3 H]-PGE2 /[^14 C]-ABP at 5 mins are subtracted from dpms at 0 time. The resulting dpms reflect radioactivity taken up by bone powder. The dpms obtained by counting 100 μl aliquots at each time point are then divided by the dpms taken up by bone. 13% of the ^3 H-moiety is released into the medium at 15 hrs and by 103 hours 32.9% of the radioactivity is released into the medium.

[3] = In vivo uptake and release in rat tibiae and femora; set-up: species or system rat (Sprague-Dawley female); details: single i.v. dose
Description: The animals used in this experiment were sacrificed at 24 hours, 14 and 28 days after the compounds claimed in the instant invention were administered. The radioactivity of the ^14 C and ^3 H was measured after incineration of the long bones to determine the percentage of compound retained in the bone. […] High LP levels are normally associated with the breakdown of bone collagen.
Both compounds are administered i.v. via the tail vein to Sprague-Dawley female rats as a radiolabelled compound, equivalent to about 0.3 μCi/animal, [^3 H]-alendronate is administered to nine rats and [^3 H]-PGE2 /[^14 C]-ABP (dual labelled conjugate 14), is administered to seven rats. After 1, 14 or 28 days, animals are sacrificed by CO2 inhalation and the tibiae and femora are dissected, weighed and then stored at -20° C. The amount of radioactivity incorporated into the bone is determined by incineration in a Packard combuster after first air drying the bone for three days at ambient temperature. The percent of the compound retained in the skeleton at each time point is calculated on the basis of the radioactivity, converted to nmoles/gm bone on the assumption that the skeleton represents 8% of the body weight. The skeletal retention is expressed as percent administered dose.

[4] = 1, 3 and 6 mg/Kg/day PGE2, rapidly growing rats; cited from earlier work
[5] = cited from earlier work
[6] = cited from earlier work; remark: listed apart in the source
[7] = long term s.c.; adrenal glands, liver, kidneys, and lungs; cited from earlier work
[8] = oral dosing; cited from earlier work
[9] = Characterization of 3H liberated on hydrolysis of conjugate in rat plasma; format: in vitro ADME; details: conjugate 20, 24 hr, fresh rat plasma, of the initial counts
Description: A stock solution of 0.4 μCi conjugate 20 or [^3 H]-PGE2 (0.4 μCi) is incubated in either fresh rat plasma, boiled plasma or PBS (ml) at 37 C. After 4 h or 24 h, 100 μl aliquots are removed, diluted with acetonitrile (100 μl), vortexed and centrifuged. 100 μl of supernatant is separated by HPLC (C-18, 0.5% HOAc in water, 66%: acetonitrile 33%, 1 ml/min) with effluent monitored by an on-line scintillation detector and UV detector. No radioactivity is eluted under these conditions when 0.2 μCi, conjugate 20 (62 μg) is applied. (It is necessary to mix 0.4 mg of unlabelled 20 with 0.1 μCi labelled 20 to recover 0.05 μCi from the HPLC.) Radioactive peaks are identified by coelution with authentic [^3 H]-PGE2 and cold PGA2. An authentic sample of PGB2 is prepared by incubating PGE2 (2.4 mg) with 1 ml rat plasma at 37° C. for 24 hr. The sample, purified by HPLC, will have appropriate ^1 H-NMR, UV and MS. To identify radioactive peaks eluting at the solvent front with incubation of conjugate 20 for 24 hr in fresh rat plasma, the fraction is collected and distilled. The collected distillate has 60% of the initial counts.

[10] = s.c. over 60, 120, and 180 days

## CCCCC[C@@H](/C=C/[C@H]1[C@H](O)CC(=O)[C@@H]1C/C=C\CCCC(=O)O)OC(=O)CSCCCC(P(=O)(O)O)P(=O)(O)O [Conjugate 14, PGE2 bisphosphonate conjugate]
[1]; in vitro
  time of uptake to human bone powder: within one minute
[1]; within 1 min
  uptake of 3H-moiety by human bone powder: ~53%
  uptake of 14C-moiety by human bone powder: about 76%
[1]; within 1 min, listed as 14 C/^3 H dual labeled compound
  uptake of 14C-moiety by human bone powder: About 77%
[2]; 15 hrs, fetal bovine serum, 37° C.
  3H-moiety released into the medium: 13%
[2]; 103 hours, fetal bovine serum, 37° C.
  radioactivity released into the medium (3H-moiety): 32.9%
[2]; fetal bovine serum, 37° C., listed as 14 C/^3 H dual labeled compound
  rate of release (disassociation) of PG (3H) moiety from human bone powder: approximately 5 %/day
[2]; fetal bovine serum, 37° C., listed as [^3 H]-PGE2 /[^14 C]-alendronate
  rate of release (disassociation) of PG (3H) moiety from human bone powder: About 5 %/day
[2]; radiolabel and radioimmunoassay experiments
  release of the prostaglandin from the bisphosphonate at bone: confirm release of the prostaglandin from the bisphosphonate at the bone cell site
[2]; up to 103 hours, fetal bovine serum, 37° C.
  dpms of 14C-moiety in the medium: not significantly changed
[3]
  uptake into / delivery to bone in vivo: uptake of the labeled compound shown below into rat tibiae and femora after a single dose was administered intravaneously was demonstrated

## CCCCC[C@H](O)/C=C/[C@H]1[C@H](O)CC(=O)[C@@H]1C/C=C\CCCC(=O)O [PGE2]
[4]
  hard tissue mass in the secondary spongiosa of the proximal tibial metaphysis: increase in hard tissue mass
  number of trabeculae: increase in the number of trabeculae
[5]; daily s.c. administration
  periosteal and corticoendosteal bone mass: increases periosteal and corticoendosteal bone mass
[5]; [10]
  bone activity: elevated bone activity
  tibial diaphyseal bone mass: increased tibial diaphyseal bone mass
[6]; 1 mg of PGE2
  serum phosphate levels: significant decreases
[6]; s.c., doses of 3 mg/Kg/day or higher, rats
  side effects: diarrhea and flushing of the extremities along with weight loss
[7]
  soft tissue weight: soft tissue weight increases in adrenal glands, liver, kidneys, and lungs
[8]
  side effects: loose stools, diarrhea, vomiting, infected sclerae, and increased serum alkaline phosphatase levels

## CCCCC[C@@H](/C=C/[C@H]1[C@H](O)CC(=O)[C@@H]1C/C=C\CCCC(=O)O)OC(=O)CSCc1cc(CSCC(=O)O[C@H](/C=C/[C@H]2[C@H](O)CC(=O)[C@@H]2C/C=C\CCCC(=O)O)CCCCC)cc(CC(P(=O)(O)O)P(=O)(O)O)c1 [Conjugate 20, Bis-(PGE2)-bisphosphonate conjugate]
[9]
  counts in collected distillate of radioactive peak eluting at solvent front: 60%
